In one assay the target is T1, C-Raf (Homo sapiens, UniProt P04049).
T1 construct: purchased Proteros biostructures GmbH (selectivity panel service)
Description: Biochemical inhibition, standard selectivity panel (Proteros). Also on record: dose or concentration left out as unconfirmed. The method, then: (§1) For example, selected compound of the present invention were tested in a standard selectivity panel including c-Raf, p38, and 22 other kinases (Proteros biostructures GmbH, Martinsried/Munich, Germany), under conditions of non-disclosure, non-dissemination and non-use.
(§2) In brief, selected compounds of the present invention were tested […] in triplicates against c-Raf, p38 as well as against Ab1, Akt1, Aur A, c-Kit, c-Raf, Cdk1/CycB, Chk1, FGFR3, Flt3, Fyn, IGF1-R, INSR, Lyn, MAPK-ERK1, PAK-4, PKCalpha, Plk1, Ret, ROCK2, RSK 1, c-Src, TIE2, and VEGF-R2.

The next assay concerns the target T2, p38 (Homo sapiens, UniProt Q16539).
T2 construct: purchased Proteros biostructures GmbH (selectivity panel service)
Described as above. Also on record: dose or concentration left out as unconfirmed. The protocol:
as §1, §2

In assay [1] the test system is HT-29 [B-Raf V600E mutant]. Description: Anti-proliferative activity, SRB assay, 72 hours. In kind it is cell-based. As to conditions: Homo sapiens, read-out: CELLULAR IC50 [μM] HT-29 [B-Raf V600E mutant]. The protocol:
We observed the surprising finding that compounds of the invention were useful in inhibiting proliferation of HT-29 tumor cells (see Table 3).
(§3) Cells were exposed to the test compounds at various concentrations appropriate to determine an IC50, for 72 hours, and cell proliferation was measured using the SRB assay according to Shekan et al (J Natl Cancer Inst (1990) 82, 1107-112) in order to estimate the IC50 values shown in Table 3.
(§4) Briefly, cells were plated in 96 well dishes 24 hours prior to compound addition at the densities specified in Table 11.1.
(§5) The assay was terminated with the addition of ice cold 10% TCA after growth medium has been removed and the plates were incubated over night at 4° C. The plates were then washed 5 times with water and 100 μl of a Sulforhodamine B solution ([…]) was added to each well. The plates were then incubated for 10 minutes at room temperature before removal of unbound dye by washing with 1% acetic acid. The bound dye was solubilized with 10 mM Trizma base and the absorbance read at OD520.
(§6) Inhibitory activity of the compounds was calculated as % inhibition of cell proliferation compared to cells treated with the solvent (DMSO).
(In general: Sulforhodamine B stains cellular protein and so reports cell mass.)

The subject of the next assay is A-431 [B-Raf wildtype]. Description: Anti-proliferative activity, SRB assay, 72 hours. As to conditions: Homo sapiens, read-out: CELLULAR IC50 [μM] A-431 [B-Raf wildtype]. Format: cell-based. The method, then: as §3, §4, §5, §6

Our source for the inhibition and IC50 values is US8232283B2, “Raf inhibitors” (Forma Therapeutics, Inc., priority 2008, dated 2012).

Usually inhibition stands for the share of the control response that was lost under treatment. For orientation: IC50 means the concentration needed to halve the response being measured.

Where only a bound is given, the exact number is not on record here.

T1 sequence (P04049 whole entry): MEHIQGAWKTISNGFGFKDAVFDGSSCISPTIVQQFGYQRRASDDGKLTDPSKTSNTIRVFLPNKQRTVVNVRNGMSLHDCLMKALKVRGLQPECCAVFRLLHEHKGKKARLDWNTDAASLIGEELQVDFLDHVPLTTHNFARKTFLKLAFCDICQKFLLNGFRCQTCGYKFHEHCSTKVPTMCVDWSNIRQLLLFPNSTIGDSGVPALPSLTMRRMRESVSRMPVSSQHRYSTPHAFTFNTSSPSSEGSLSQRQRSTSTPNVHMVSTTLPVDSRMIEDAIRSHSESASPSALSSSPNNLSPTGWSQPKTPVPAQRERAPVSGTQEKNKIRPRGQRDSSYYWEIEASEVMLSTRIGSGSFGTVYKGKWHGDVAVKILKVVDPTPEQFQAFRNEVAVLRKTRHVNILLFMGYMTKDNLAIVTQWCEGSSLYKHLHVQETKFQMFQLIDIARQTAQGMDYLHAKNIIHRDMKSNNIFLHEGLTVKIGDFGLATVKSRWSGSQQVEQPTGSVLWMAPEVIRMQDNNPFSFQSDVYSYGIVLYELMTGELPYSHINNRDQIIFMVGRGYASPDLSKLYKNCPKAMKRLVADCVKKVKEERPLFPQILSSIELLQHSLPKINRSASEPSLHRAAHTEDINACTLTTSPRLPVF
T2 sequence (Q16539 whole entry): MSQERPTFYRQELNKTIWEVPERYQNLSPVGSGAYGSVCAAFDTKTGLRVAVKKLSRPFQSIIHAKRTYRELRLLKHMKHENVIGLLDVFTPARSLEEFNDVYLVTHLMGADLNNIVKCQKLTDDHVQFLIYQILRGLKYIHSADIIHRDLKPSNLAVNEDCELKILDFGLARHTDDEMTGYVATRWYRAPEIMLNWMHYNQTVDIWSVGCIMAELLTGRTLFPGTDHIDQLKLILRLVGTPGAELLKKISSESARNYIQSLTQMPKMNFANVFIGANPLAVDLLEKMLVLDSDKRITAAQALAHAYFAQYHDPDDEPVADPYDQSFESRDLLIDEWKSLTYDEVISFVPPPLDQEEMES

In the case of `COc1ccc(NC(=O)Nc2ccc(Cl)c(-c3cc4cnc(NCCN(C)C)nc4n(OC)c3=O)c2)cc1Cl` [Compound 4, 1-{4-Chloro-3-[2-(2-dimethylamino-ethylamino)-8-methoxy-7-oxo-7,8-dihydro-pyrido[2,3-d]pyrimidin-6-yl]-phenyl}-3-(3-chloro-4-methoxy-phenyl)-urea], the inhibition at C-Raf and at p38 was above 70% in each case. Besides, the IC50 in assay [1] is below 10 µM; in the assay with A-431 [B-Raf wildtype], above 10 µM.
For `CCN(CC)c1cc(C(=O)Nc2ccc(Cl)c(-c3cc4cnc(NCCN(C)C)nc4n(OC)c3=O)c2)cc(Cl)n1` [Compound 8, 2-Chloro-N-(4-chloro-3-(2-(2-(dimethylamino)ethylamino)-8-methoxy-7-oxo-7,8-dihydropyrido[2,3-d]pyrimidin-6-yl)phenyl)-6-diethylamino-isonicotinamide], the inhibition against C-Raf and on p38 was above 70% each time. The IC50 is below 5 µM in assay [1] and below 10 µM with A-431 [B-Raf wildtype].
On to `COn1c(=O)c(-c2cc(NC(=O)c3ccc(Cl)c(Cl)c3)ccc2Cl)cc2cnc(NCCN(C)C)nc21` [Compound 10, 3,4-Dichloro-N-{4-chloro-3-[2-(2-dimethylamino-ethylamino)-8-methoxy-7-oxo-7,8-dihydro-pyrido[2,3-d]pyrimidin-6-yl]-phenyl}-benzamide], for which the inhibition against C-Raf and against p38 was above 70% throughout. Moreover, the results for the IC50 (in assay [1]; with A-431 [B-Raf wildtype]) were below 5 µM and above 10 µM, respectively.
As for `COn1c(=O)c(-c2cc(NC(=O)Cc3ccc(Cl)c(C(F)(F)F)c3)ccc2Cl)cc2cnc(NCCN(C)C)nc21` [Compound 16, N-{4-Chloro-3-[2-(2-dimethylamino-ethylamino)-8-methoxy-7-oxo-7,8-dihydro-pyrido[2,3-d]pyrimidin-6-yl]-phenyl)-2-(4-chloro-3-trifluoromethyl-phenyl)-acetamide], the inhibition against C-Raf and against p38 was above 70% throughout. The IC50 in assay [1] was below 5 µM; with A-431 [B-Raf wildtype] it was above 10 µM.
In the case of `COc1cc(C(F)(F)F)ccc1C(=O)Nc1ccc(-c2cc3cnc(NCCN(C)C)nc3n(OC)c2=O)c(Cl)c1` [Compound 51, N-{3-Chloro-4-[2-(2-dimethylamino-ethylamino)-8-methoxy-7-oxo-7,8-dihydro-pyrido[2,3-d]pyrimidin-6-yl]-phenyl}-2-methoxy-4-trifluoromethyl-benzamide], the values for the half-maximal inhibitory concentration (IC50) (in assay [1]; in the assay with A-431 [B-Raf wildtype]) were below 5 µM and below 10 µM, respectively.
For `COn1c(=O)c(-c2ccc(NC(=O)c3ccc(Cl)c(OC(F)(F)F)c3)cc2Cl)cc2cnc(NCCN(C)C)nc21` [Compound 52, 4-Chloro-N-{3-chloro-4-[2-(2-dimethylamino-ethylamino)-8-methoxy-7-oxo-7,8-dihydro-pyrido[2,3-d]pyrimidin-6-yl]-phenyl}-3-trifluoromethoxy-benzamide] the same measures were below 5 µM and below 10 µM.
The corresponding values for `COn1c(=O)c(-c2ccc(NC(=O)c3ccc(CN4CCN(C)CC4)cc3)cc2Cl)cc2cnc(NCCN(C)C)nc21` [Compound 53, N-{3-Chloro-4-[2-(2-dimethylamino-ethylamino)-8-methoxy-7-oxo-7,8-dihydro-pyrido[2,3-d]pyrimidin-6-yl]-phenyl}-4-(4-methyl-piperazin-1-ylmethyl)-benzamide] are above 10 µM and above 10 µM.
`COn1c(=O)c(-c2ccc(NC(=O)c3ccnc(N4CCOCC4)c3)cc2Cl)cc2cnc(NCCN(C)C)nc21` [Compound 54, N-{3-Chloro-4-[2-(2-dimethylamino-ethylamino)-8-methoxy-7-oxo-7,8-dihydro-pyrido[2,3-d]pymidin-6-yl]-phenyl}-2-morpholin-4-yl-isonicotinamide]: the concentration for half-maximal inhibition (IC50) (in assay [1]; in the assay with A-431 [B-Raf wildtype]) was above 10 µM throughout.
On to `COn1c(=O)c(-c2ccc(NC(=O)c3ccc(OCc4cccc(F)c4)c(Cl)c3)cc2Cl)cc2cnc(NCCN(C)C)nc21` [Compound 55, 3-Chloro-N-{3-chloro-4-[2-(2-dimethylamino-ethylamino)-8-methoxy-7-oxo-7,8-dihydro-pyrido[2,3-d]pyrimidin-6-yl]-phenyl}-4-(3-fluoro-benzyloxy)-benzamide], for which the IC50 in assay [1] was below 5 µM; in the assay with A-431 [B-Raf wildtype], below 10 µM.
The corresponding values for `COn1c(=O)c(-c2ccc(NC(=O)c3cc(C(C)(C)C)nn3-c3ccccc3)cc2Cl)cc2cnc(NCCN(C)C)nc21` [Compound 56, 5-tert-Butyl-2-phenyl-2H-pyrazole-3-carboxylic acid {3-chloro-4-[2-(2-dimethylamino-ethylamino)-8-methoxy-7-oxo-7,8-dihydro-pyrido[2,3-d]pyrimidin-6-yl]-phenyl}-amide] are below 5 µM and below 10 µM.
For `COn1c(=O)c(-c2ccc(NC(=O)Cc3ccc(Cl)c(C(F)(F)F)c3)cc2Cl)cc2cnc(NCCN(C)C)nc21` [Compound 57, N-{3-Chloro-4-[2-(2-dimethylamino-ethylamino)-8-methoxy-7-oxo-7,8-dihydro-pyrido[2,3-d]pyrimidin-6-yl]-phenyl}-2-(4-chloro-3-trifluoromethyl-phenyl)-acetamide], the IC50 (in assay [1]; with A-431 [B-Raf wildtype]) was below 10 µM in each case.
With `COn1c(=O)c(-c2cc(NC(=O)c3cc(Cl)nc(N4CCCC4)c3)ccc2Cl)cc2cnc(NCCN(C)C)nc21` [Compound 58, 2-Chloro-N-(4-chloro-3-(2-(2-(dimethylamino)ethylamino)-8-methoxy-7-oxo-7,8-dihydropyrido[2,3-d]pyrimidin-6-yl)phenyl)-6-pyrrolidin-1-yl-isonicotinamide], the IC50 in assay [1] was below 5 µM; in the assay on A-431 [B-Raf wildtype] it was below 10 µM.
For `COn1c(=O)c(-c2cc(NC(=O)c3cc(Cl)nc(N(C)C)c3)ccc2Cl)cc2cnc(NCCN(C)C)nc21` [Compound 59, 2-Chloro-N-(4-chloro-3-(2-(2-(dimethylamino)ethylamino)-8-methoxy-7-oxo-7,8-dihydropyrido[2,3-d]pyrimidin-6-yl)phenyl)-6-dimethylamino-isonicotinamide], the half-inhibitory concentration (IC50) in assay [1] is below 5 µM; in the assay with A-431 [B-Raf wildtype], above 10 µM.
For `COn1c(=O)c(-c2cc(NC(=O)c3cc(Cl)nc(N4CCCCC4)c3)ccc2Cl)cc2cnc(NCCN(C)C)nc21` [Compound 60, 2-Chloro-N-(4-chloro-3-(2-(2-(dimethylamino)ethylamino)-8-methoxy-7-oxo-7,8-dihydropyrido[2,3-d]pyrimidin-6-yl)phenyl)-6-pyperidin-1-yl-isonicotinamide], the IC50 in assay [1] is below 5 µM; with A-431 [B-Raf wildtype], below 10 µM.
The corresponding values for `COn1c(=O)c(-c2cc(NC(=O)c3cc(Cl)nc(N4CCN(C)CC4)c3)ccc2Cl)cc2cnc(NCCN(C)C)nc21` [Compound 62, 2-Chloro-N-(4-chloro-3-(2-(2-(dimethylamino)ethylamino)-8-methoxy-7-oxo-7,8-dihydropyrido[2,3-d]pyrimidin-6-yl)phenyl)-6-(4-methyl-piperazin-1-yl)-isonicotinamide] are below 5 µM and above 10 µM.
`CCNc1cc(C(=O)Nc2ccc(Cl)c(-c3cc4cnc(NCCN(C)C)nc4n(OC)c3=O)c2)cc(Cl)n1` [Compound 63, 2-Chloro-N-(4-chloro-3-(2-(2-(dimethylamino)ethylamino)-8-methoxy-7-oxo-7,8-dihydropyrido[2,3-d]pyrimidin-6-yl)phenyl)-6-ethylamino-isonicotinamide]: the IC50 in assay [1] is below 5 µM; with A-431 [B-Raf wildtype] it was above 10 µM.
For `COn1c(=O)c(-c2cc(NC(=O)c3cc(Cl)nc(NCCN(C)C)c3)ccc2Cl)cc2cnc(NCCN(C)C)nc21` [Compound 65, 2-Chloro-N-(4-chloro-3-(2-(2-(dimethylamino)ethylamino)-8-methoxy-7-oxo-7,8-dihydropyrido[2,3-d]pyrirnidin-6-yl)phenyl)-6-(2-dimethylaminoethylamino)-isonicotinamide] the same measures were below 10 µM and above 10 µM.
Take `COn1c(=O)c(-c2cc(NC(=O)c3cc(Cl)nc(NC4CCN(C)CC4)c3)ccc2Cl)cc2cnc(NCCN(C)C)nc21` [Compound 66]: the IC50 in assay [1] is below 10 µM; in the assay with A-431 [B-Raf wildtype], above 10 µM.
The corresponding values for `COn1c(=O)c(-c2cc(NC(=O)c3cc(Cl)nc(NCc4ccc(N5CCN(C)CC5)cc4)c3)ccc2Cl)cc2cnc(NCCN(C)C)nc21` [Compound 67, 2-Chloro-N-(4-chloro-3-(2-(2-(dimethylamino)ethylamino)-8-methoxy-7-oxo-7,8-dihydropyrido[2,3-d]pyrimidin-6-yl)phenyl)-6-(4-(4-methylpiperazin-1-yl)-benzylamino)-isonicotinamide] are below 5 µM and below 10 µM.
